Source: article PMC12396409, “Screening and hit evaluation of a microbial metabolite library against the pathogenic Plasmodium falciparum and Toxoplasma gondii parasites” (International Journal for Parasitology: Drugs and Drug …, 2025)
Like-named read-outs stand apart in the source and are kept apart here.

Columns and labels:
[1] = test system: T. gondii RH strain (RH-Tub-eYFP) tachyzoites; assay: microbe, parasite or virus in culture; type: cell-based, Toxoplasma gondii; settings: 72 h, 72 h; for percent parasite growth at 2 µg/mL: Toxoplasma gondii
[2] = test system: P. falciparum 3D7 parasites; assay: P. falciparum growth inhibition assay, 1-cycle (72 h treatment), SYBR DNA staining (library screen at 2 μg/mL and dose-response); type: cell-based, Plasmodium falciparum; settings: for activity at 2 µg/mL: Plasmodium falciparum
[3] = test system: P. falciparum 3D7 parasites; assay: P. falciparum growth inhibition assay, 2-cycle (120 h treatment), delayed-death screen and dose-response; type: cell-based, Plasmodium falciparum; settings: for activity at 2 µg/mL: Plasmodium falciparum
[4] = library screen at 2 μg/mL, % growth, replicate 1, read-out: Tg_72h_%Growth_Rep1
[5] = library screen at 2 μg/mL, % growth, replicate 2, read-out: Tg_72h_%Growth_Rep2
[6] = 3D7, library screen at 2 μg/mL, 72 h, % growth, replicate 1, read-out: Pf_72h_%Growth_Rep1
[7] = 3D7, library screen at 2 μg/mL, 72 h, % growth, replicate 2, read-out: Pf_72h_%Growth_Rep2
[8] = 3D7, library screen at 2 μg/mL, 120 h, % growth, replicate 1, read-out: Pf_120h_%Growth_Rep1
[9] = 3D7, library screen at 2 μg/mL, 120 h, % growth, replicate 2, read-out: Pf_120h_%Growth_Rep2
[10] = T. gondii, parasite screen at 2 μg/mL, % growth, replicate 1
[11] = T. gondii, parasite screen at 2 μg/mL, % growth, replicate 2
[12] = P. falciparum 3D7, 72 h, parasite screen at 2 μg/mL, % growth, replicate 1
[13] = P. falciparum 3D7, 72 h, parasite screen at 2 μg/mL, % growth, replicate 2
[14] = P. falciparum 3D7, 120 h, parasite screen at 2 μg/mL, % growth, replicate 1
[15] = P. falciparum 3D7, 120 h, parasite screen at 2 μg/mL, % growth, replicate 2
[16] = T. gondii, screen at 2 μg/mL, replicate 1
[17] = T. gondii, screen at 2 μg/mL, replicate 2
[18] = P. falciparum, 72 h, screen at 2 μg/mL, replicate 1
[19] = P. falciparum, 72 h, screen at 2 μg/mL, replicate 2
[20] = P. falciparum, 120 h, screen at 2 μg/mL, replicate 1
[21] = P. falciparum, 120 h, screen at 2 μg/mL, replicate 2
[22] = library screen at 2 μg/mL, % growth, replicate 1
[23] = library screen at 2 μg/mL, % growth, replicate 2
[24] = library screen at 2 μg/mL, 72 h, % growth, replicate 1
[25] = library screen at 2 μg/mL, 72 h, % growth, replicate 2
[26] = library screen at 2 μg/mL, 120 h, % growth, replicate 1
[27] = library screen at 2 μg/mL, 120 h, % growth, replicate 2

CO/C1=C\C(C)=C\[C@@H](C)[C@@H](O)[C@@H](C)C/C(C)=C/C=C/[C@H](OC)[C@@H]([C@@H](C)[C@@H](O)[C@H](C)[C@@]2(O)C[C@@H](O)[C@H](C)[C@@H](C(C)C)O2)OC1=O [Bafilomycin A1]
percent parasite growth at 2 µg/mL [1, 4]: -1.58%
percent parasite growth at 2 µg/mL [1, 5]: 0.71%
activity at 2 µg/mL [2, 6]: 3.38%
activity at 2 µg/mL [2, 7]: 2.45%
activity at 2 µg/mL [3, 8]: 5.49%
activity at 2 µg/mL [3, 9]: 9.47%

O=C(O)CC[N+](=O)[O-] [BIA-N1694]
Tg_72h_%Growth_Rep1 [1, 10]: 133.03%
Tg_72h_%Growth_Rep2 [1, 11]: 105.32%
Pf_72h_%Growth_Rep1 [2, 12]: 75.60%
Pf_72h_%Growth_Rep2 [2, 13]: 92.27%
Pf_120h_%Growth_Rep1 [3, 14]: 78.14%
Pf_120h_%Growth_Rep2 [3, 15]: 7.96%

N[C@H](CO)[C@H](O)c1ccc([N+](=O)[O-])cc1 [Chloramphenicol base]
Tg_72h_%Growth_Rep1 [1, 16]: 134.60%
Tg_72h_%Growth_Rep2 [1, 17]: 99.67%
Pf_72h_%Growth_Rep1 [2, 18]: 86.96%
Pf_72h_%Growth_Rep2 [2, 19]: 86.58%
Pf_120h_%Growth_Rep1 [3, 20]: 102.72%
Pf_120h_%Growth_Rep2 [3, 21]: 92.34%

CCCCCCCCCC[C@@H](O)C[C@]1(O)O[C@H](CC(O)C(O)C(O)C(O)C(O)CC(O)CC(O)CC(O)CC(O)C(C)C(O)C(C)C(O)CC(O)C(C)C(O)C(O)C[C@H](C)C[C@H](C)/C=C(C)/C(O)=C2\C(=O)CN(C)C2=O)[C@@H](O)[C@H](O)[C@@H]1O (stereo partly drawn) [Blasticidin A]
Tg_72h_%Growth_Rep1 [1, 16]: 83.39%
Tg_72h_%Growth_Rep2 [1, 17]: 93.60%
Pf_72h_%Growth_Rep1 [2, 18]: 84.79%
Pf_72h_%Growth_Rep2 [2, 19]: 87.65%
Pf_120h_%Growth_Rep1 [3, 20]: 135.50%
Pf_120h_%Growth_Rep2 [3, 21]: 87.28%

O=C(N[C@H](COC(=O)[C@H](Cc1ccccc1)NC(=O)c1ccccc1)Cc1ccccc1)c1ccccc1 [Asperphenamate]
percent parasite growth at 2 µg/mL [1, 4]: 150%
percent parasite growth at 2 µg/mL [1, 5]: 107%
activity at 2 µg/mL [2, 6]: 84.3%
activity at 2 µg/mL [2, 7]: 83.3%
activity at 2 µg/mL [3, 8]: 69.7%
activity at 2 µg/mL [3, 9]: 85.4%

CC=C(C)c1c(Cl)c(O)c(C)c2c1Oc1c(Cl)c(O)c(Cl)c(C)c1C(=O)O2 [BIA-N1159]
Tg_72h_%Growth_Rep1 [1, 10]: 86.78%
Tg_72h_%Growth_Rep2 [1, 11]: 84.63%
Pf_72h_%Growth_Rep1 [2, 12]: 85.21%
Pf_72h_%Growth_Rep2 [2, 13]: 97.34%
Pf_120h_%Growth_Rep1 [3, 14]: 97.37%
Pf_120h_%Growth_Rep2 [3, 15]: 135.76%

CC[C@H](C)[C@H]1O[C@]2(C=C[C@@H]1C)C[C@@H]1C[C@@H](C/C=C(\C)[C@@H](O)[C@@H](C)/C=C/C=C3\CO[C@@H]4[C@H](O)C(C)=C[C@@H](C(=O)O1)[C@]34O)O2 [Avermectin B1a aglycone]
Tg_72h_%Growth_Rep1 [1, 22]: 137.71%
Tg_72h_%Growth_Rep2 [1, 23]: 97.71%
Pf_72h_%Growth_Rep1 [2, 24]: 81.70%
Pf_72h_%Growth_Rep2 [2, 25]: 78.59%
Pf_120h_%Growth_Rep1 [3, 26]: 81.78%
Pf_120h_%Growth_Rep2 [3, 27]: 74.45%

CC(CCCCCCCCCCCCCCOC1OC(CO)C(O)C(O)C1O)C(O)=C1C(=O)C(C)N(C)C1=O (stereo not drawn) [Epicoccamide]
Tg_72h_%Growth_Rep1 [1, 22]: 135.91%
Tg_72h_%Growth_Rep2 [1, 23]: 106.99%
Pf_72h_%Growth_Rep1 [2, 24]: 87.59%
Pf_72h_%Growth_Rep2 [2, 25]: 88.25%
Pf_120h_%Growth_Rep1 [3, 26]: 94.92%
Pf_120h_%Growth_Rep2 [3, 27]: 97.01%

CSC[S@+]([O-])C[C@H](CO)NC(=O)/C=C/c1c(C)[nH]c(=O)[nH]c1=O [Sparsomycin]
percent parasite growth at 2 µg/mL ([1]; T. gondii, parasite screen 2 μg/mL, % growth, replicate 1, read-out: Tg_72h_%Growth_Rep1): 2.81%
percent parasite growth at 2 µg/mL ([1]; T. gondii, parasite screen 2 μg/mL, % growth, replicate 2, read-out: Tg_72h_%Growth_Rep2): 27.9%
activity at 2 µg/mL ([2]; 3D7, 72 h, P. falciparum, 72 h, parasite screen 2 μg/mL, % growth, replicate 1, read-out: Pf_72h_%Growth_Rep1): 4.3%
activity at 2 µg/mL ([2]; 3D7, 72 h, P. falciparum, 72 h, parasite screen 2 μg/mL, % growth, replicate 2, read-out: Pf_72h_%Growth_Rep2): -1%
activity at 2 µg/mL ([3]; 3D7, 120 h, P. falciparum, 120 h, parasite screen 2 μg/mL, % growth, replicate 1, read-out: Pf_120h_%Growth_Rep1): 10.1%
activity at 2 µg/mL ([3]; 3D7, 120 h, P. falciparum, 120 h, parasite screen 2 μg/mL, % growth, replicate 2, read-out: Pf_120h_%Growth_Rep2): -13.2%

COC(=O)[C@]1(Cc2ccc(O)cc2)OC(=O)C(O)=C1c1ccc(O)cc1 [Butyrolactone II]
Tg_72h_%Growth_Rep1 [1, 16]: 129.35%
Tg_72h_%Growth_Rep2 [1, 17]: 92.93%
Pf_72h_%Growth_Rep1 [2, 18]: 83.73%
Pf_72h_%Growth_Rep2 [2, 19]: 86.44%
Pf_120h_%Growth_Rep1 [3, 20]: 89.95%
Pf_120h_%Growth_Rep2 [3, 21]: 95.11%

CC(=O)N[C@H]1[C@H](O[C@@H]2c3ccc(c(Cl)c3)Oc3cc4cc(c3O[C@@H]3O[C@H](CO)[C@@H](O)[C@H](O)[C@H]3NC(=O)CCCCCCCC(C)C)Oc3ccc(cc3Cl)C[C@H]3NC(=O)[C@H](N)c5ccc(O)c(c5)Oc5cc(O)cc(c5)[C@H](NC3=O)C(=O)N[C@H]4C(=O)N[C@H]3C(=O)N[C@@H]2C(=O)N[C@H](C(=O)O)c2cc(O)cc(O[C@H]4O[C@H](CO)[C@@H](O)[C@H](O)[C@@H]4O)c2-c2cc3ccc2O)O[C@H](CO)[C@@H](O)[C@@H]1O [Teicoplanin A2-5]
Tg_72h_%Growth_Rep1 [1, 16]: 105.42%
Tg_72h_%Growth_Rep2 [1, 17]: 91.45%
Pf_72h_%Growth_Rep1 [2, 18]: 86.27%
Pf_72h_%Growth_Rep2 [2, 19]: 115.48%
Pf_120h_%Growth_Rep1 [3, 20]: 86.61%
Pf_120h_%Growth_Rep2 [3, 21]: 122.81%

CC(C)C[C@H]1C(=O)O[C@H](C(C)C)C(=O)N(C)[C@@H](CC(C)C)C(=O)O[C@H](C(C)C)C(=O)N(C)[C@@H](CC(C)C)C(=O)O[C@H](C(C)C)C(=O)N(C)[C@@H](CC(C)C)C(=O)O[C@H](C(C)C)C(=O)N1C [Bassianolide]
Tg_72h_%Growth_Rep1 [1, 22]: 78.43%
Tg_72h_%Growth_Rep2 [1, 23]: 93.64%
Pf_72h_%Growth_Rep1 [2, 24]: 6.97%
Pf_72h_%Growth_Rep2 [2, 25]: 5.23%
Pf_120h_%Growth_Rep1 [3, 26]: 10.85%
Pf_120h_%Growth_Rep2 [3, 27]: -3.01%

CC(C)[C@@H]1NC(=O)[C@H](C)OC(=O)[C@@H](C(C)C)NC(=O)[C@@H](C(C)C)OC(=O)[C@H](C(C)C)NC(=O)[C@H](C)OC(=O)[C@@H](C(C)C)NC(=O)[C@@H](C(C)C)OC(=O)[C@H](C(C)C)NC(=O)[C@H](C)OC(=O)[C@@H](C(C)C)NC(=O)[C@@H](C(C)C)OC1=O [Valinomycin]
percent parasite growth at 2 µg/mL ([1]; T. gondii, screen at 2 μg/mL, replicate 1, read-out: Tg_72h_%Growth_Rep1): 122%
percent parasite growth at 2 µg/mL ([1]; T. gondii, screen at 2 μg/mL, replicate 2, read-out: Tg_72h_%Growth_Rep2): 85.6%
activity at 2 µg/mL ([2]; 3D7, P. falciparum, 72 h, screen at 2 μg/mL, replicate 1, read-out: Pf_72h_%Growth_Rep1): 81%
activity at 2 µg/mL ([2]; 3D7, P. falciparum, 72 h, screen at 2 μg/mL, replicate 2, read-out: Pf_72h_%Growth_Rep2): 123%
activity at 2 µg/mL ([3]; 3D7, P. falciparum, 120 h, screen at 2 μg/mL, replicate 1, read-out: Pf_120h_%Growth_Rep1): 90.6%
activity at 2 µg/mL ([3]; 3D7, P. falciparum, 120 h, screen at 2 μg/mL, replicate 2, read-out: Pf_120h_%Growth_Rep2): 101%

O=[N+]([O-])c1ncc[nH]1 [Azomycin]
percent parasite growth at 2 µg/mL [1, 4]: 77.1%
percent parasite growth at 2 µg/mL [1, 5]: 71.1%
activity at 2 µg/mL ([2]; 3D7, 72 h, library screen at 2 μg/mL, 72 h, % growth, replicate 1, read-out: Pf_72h_%Growth_Rep1): 83.2%
activity at 2 µg/mL ([2]; 3D7, 72 h, library screen at 2 μg/mL, 72 h, % growth, replicate 2, read-out: Pf_72h_%Growth_Rep2): 88%
activity at 2 µg/mL ([3]; 3D7, 120 h, library screen at 2 μg/mL, 120 h, % growth, replicate 1, read-out: Pf_120h_%Growth_Rep1): 147%
activity at 2 µg/mL ([3]; 3D7, 120 h, library screen at 2 μg/mL, 120 h, % growth, replicate 2, read-out: Pf_120h_%Growth_Rep2): 91.9%
